Measurements: patent publication US20160137630A1, “INDUCTION OF GATA2 BY HDAC1 AND HDAC2 INHIBITORS” (ACETYLON PHARMACEUTICALS, INC., priority 2014, published 2016)
Several values for one entry are separate records, joined by “and”; a condition that tells them apart may be missing. Equal entries are not always repeated. Where two headings read alike, the source gives them in different places.

Experiments:
Test in all cases: in vitro biochemical HDAC inhibition assay
HDAC1 = HDAC1 (Homo sapiens, UniProt Q13547); conditions: read-out: IC50 HDAC1
HDAC3 = HDAC3 (Homo sapiens, UniProt O15379); conditions: for IC50: read-out: IC50 HDAC3
HDAC2 = HDAC2 (Homo sapiens, UniProt Q92769); conditions: read-out: IC50 HDAC2
Sequence of HDAC2 (Q92769 whole entry): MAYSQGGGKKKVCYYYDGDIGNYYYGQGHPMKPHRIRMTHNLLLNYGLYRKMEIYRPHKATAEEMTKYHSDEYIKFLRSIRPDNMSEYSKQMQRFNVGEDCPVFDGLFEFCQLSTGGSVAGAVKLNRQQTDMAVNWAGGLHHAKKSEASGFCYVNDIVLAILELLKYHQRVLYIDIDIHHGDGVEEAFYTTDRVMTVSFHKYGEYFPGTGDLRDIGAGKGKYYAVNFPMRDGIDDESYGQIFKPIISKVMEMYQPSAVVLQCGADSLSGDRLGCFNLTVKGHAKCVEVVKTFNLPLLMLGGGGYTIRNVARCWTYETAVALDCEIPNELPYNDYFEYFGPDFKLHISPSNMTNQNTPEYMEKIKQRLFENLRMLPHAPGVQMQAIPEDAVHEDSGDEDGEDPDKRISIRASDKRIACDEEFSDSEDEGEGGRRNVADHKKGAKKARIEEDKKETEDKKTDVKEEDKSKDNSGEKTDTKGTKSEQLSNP

Sequence of HDAC3 (O15379 whole entry): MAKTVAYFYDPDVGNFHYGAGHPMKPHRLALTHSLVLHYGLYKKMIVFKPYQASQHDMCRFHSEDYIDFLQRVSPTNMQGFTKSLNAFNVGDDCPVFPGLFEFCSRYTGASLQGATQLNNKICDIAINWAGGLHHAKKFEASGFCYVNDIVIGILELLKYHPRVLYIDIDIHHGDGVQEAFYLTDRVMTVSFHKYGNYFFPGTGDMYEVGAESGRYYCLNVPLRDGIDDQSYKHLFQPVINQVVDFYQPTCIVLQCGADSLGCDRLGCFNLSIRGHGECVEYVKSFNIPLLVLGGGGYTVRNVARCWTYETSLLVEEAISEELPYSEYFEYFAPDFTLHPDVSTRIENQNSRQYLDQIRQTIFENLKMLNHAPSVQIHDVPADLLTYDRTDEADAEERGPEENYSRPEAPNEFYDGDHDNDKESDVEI
Sequence of HDAC3 (Q9Y618 395-489 partner limits assumed): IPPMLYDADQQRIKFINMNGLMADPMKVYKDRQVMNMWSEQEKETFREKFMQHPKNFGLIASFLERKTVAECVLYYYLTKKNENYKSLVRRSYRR
Sequence of HDAC1 (Q13547 whole entry): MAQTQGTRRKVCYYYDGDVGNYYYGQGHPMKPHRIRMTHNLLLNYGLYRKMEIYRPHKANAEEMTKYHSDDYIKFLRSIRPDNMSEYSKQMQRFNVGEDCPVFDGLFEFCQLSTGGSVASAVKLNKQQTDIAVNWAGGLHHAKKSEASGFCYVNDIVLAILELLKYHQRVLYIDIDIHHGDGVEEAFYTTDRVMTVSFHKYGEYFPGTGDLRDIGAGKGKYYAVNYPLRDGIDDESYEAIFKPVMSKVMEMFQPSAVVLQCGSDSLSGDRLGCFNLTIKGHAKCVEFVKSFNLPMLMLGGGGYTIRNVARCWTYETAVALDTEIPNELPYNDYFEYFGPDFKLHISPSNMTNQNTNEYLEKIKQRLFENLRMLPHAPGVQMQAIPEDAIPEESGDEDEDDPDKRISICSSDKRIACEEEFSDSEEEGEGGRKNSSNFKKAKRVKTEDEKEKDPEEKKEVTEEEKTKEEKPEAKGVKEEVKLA

`Nc1ccccc1NC(=O)c1ccc(N2CCNCC2)cc1C1CC1` [Compound 2006] was tested, and the IC50 (HDAC1; Table 4) was 1400 nM, the IC50 (HDAC3; Table 4) was 23 nM and the IC50 (HDAC2; Table 4) was greater than 2000 nM.

`CN1CCN(C(=O)N2CCC(C)(Nc3ncc(C(=O)Nc4cc(-c5cccs5)ccc4N)cn3)CC2)CC1` [Compound 2009] showed an IC50 (HDAC1; Table 4) of 8.53 nM, an IC50 (HDAC3; Table 4) of 259 nM and an IC50 (HDAC2; Table 4) of 31.5 nM.

With `Nc1ccc(-c2cccs2)cc1NC(=O)c1ccc2nc(N3CCNCC3)cnc2c1` [N-(2-amino-5-(thiophen-2-yl)phenyl)-2-(piperazin-1-yl)quinoxaline-6-carboxamide] the IC50 (HDAC1; Table 2) was 7 nM, the IC50 (HDAC3; Table 2) was 71 nM and the IC50 (HDAC2; Table 2) was 12 nM.

`COCCN(C)c1cc2ncc(C(=O)Nc3cc(-c4cccs4)ccc3N)cc2cc1C1CC1` [N-(2-amino-5-(thiophen-2-yl)phenyl)-6-cyclopropyl-7-((2-methoxyethyl)(methyl)amino)quinoline-3-carboxamide] was tested, and the IC50 (HDAC1; Table 2) was 944 nM, the IC50 (HDAC3; Table 2) was greater than 2000 nM and the IC50 (HDAC2; Table 2) was 667 nM.

Molecule `COCCNc1cc2ncc(C(=O)Nc3cc(-c4cccs4)ccc3N)cc2cc1C1CC1` [N-(2-amino-5-(thiophen-2-yl)phenyl)-6-cyclopropyl-7-((2-methoxyethyl)amino)quinoline-3-carboxamide] has an IC50 (HDAC1; Table 2) of 89 nM, an IC50 (HDAC3; Table 2) of 1550 nM and an IC50 (HDAC2; Table 2) of 243 nM.

`Nc1ccc(-c2cccs2)cc1NC(=O)c1cnc2c(C3CC3)c(N3CCNCC3)ccc2c1` [N-(2-amino-5-(thiophen-2-yl)phenyl)-8-cyclopropyl-7-(piperazin-1-yl)quinoline-3-carboxamide] showed an IC50 (HDAC1; Table 2) of 3.1 nM, an IC50 (HDAC3; Table 2) of 99 nM and an IC50 (HDAC2; Table 2) of 14 nM.

In the case of `Nc1sc(-c2ccccc2)cc1NC(=O)c1cnc2cc(N3CCNCC3)ccc2c1` [N-(2-amino-5-phenylthiophen-3-yl)-7-(piperazin-1-yl)quinoline-3-carboxamide], the IC50 (HDAC1; Table 2) is reported as 1210 nM, the IC50 (HDAC3; Table 2) is reported as 171 nM and the IC50 (HDAC2; Table 2) is reported as 193 nM.

For `Nc1ccccc1NC(=O)c1ccc2nc(N3CCNCC3)ccc2c1` [N-(2-aminophenyl)-2-(piperazin-1-yl)quinoline-6-carboxamide], the IC50 (HDAC1; Table 2) was greater than 2000 nM, the IC50 (HDAC3; Table 2) was 104 nM and the IC50 (HDAC2; Table 2) was 624 nM.

`Nc1cc(-c2ccccc2)sc1NC(=O)c1cnc2cc(N3CCNCC3)ccc2c1` [N-(3-amino-5-phenylthiophen-2-yl)-7-(piperazin-1-yl)quinoline-3-carboxamide] showed an IC50 (HDAC1; Table 2) greater than 2000 nM, an IC50 (HDAC3; Table 2) greater than 2000 nM and an IC50 (HDAC2; Table 2) greater than 2000 nM.

`Nc1ccc(-c2ccccc2)nc1NC(=O)c1cnc2cc(N3CCNCC3)ccc2c1` [N-(3-amino-6-phenylpyridin-2-yl)-7-(piperazin-1-yl)quinoline-3-carboxamide] showed an IC50 (HDAC1; Table 2) of 1970 nM, an IC50 (HDAC3; Table 2) of 798 nM and an IC50 (HDAC2; Table 2) of 336 nM.

For `CN1CCN(CCn2ccc3cc(C(=O)Nc4cc(-c5ccccc5)ccc4N)ccc32)CC1` [N-(4-amino-[1,1′-biphenyl]-3-yl)-1-(2-(4-methylpiperazin-1-yl)ethyl)-1H-indole-5-carboxamide], the IC50 (HDAC1; Table 2) was 7.1 nM, the IC50 (HDAC3; Table 2) was 175 nM and the IC50 (HDAC2; Table 2) was 11 nM.

For `Nc1ccc(-c2ccccc2)cc1NC(=O)c1ccc2c(cnn2CCN2CCOCC2)c1` [N-(4-amino-[1,1′-biphenyl]-3-yl)-1-(2-morpholinoethyl)-1H-indazole-5-carboxamide], the IC50 (HDAC1; Table 2) was 7.4 nM, the IC50 (HDAC3; Table 2) was 344 nM and the IC50 (HDAC2; Table 2) was 19 nM.

`Nc1ccc(-c2ccccc2)cc1NC(=O)c1cnc2c(ccn2CCN2CCOCC2)c1` [N-(4-amino-[1,1′-biphenyl]-3-yl)-1-(2-morpholinoethyl)-1H-pyrrolo[2,3-b]pyridine-5-carboxamide] was tested, and the IC50 (HDAC1; Table 2) was 6.8 nM, the IC50 (HDAC3; Table 2) was 373 nM and the IC50 (HDAC2; Table 2) was 31 nM.

`Nc1ccc(-c2ccccc2)cc1NC(=O)c1ccc2nn(CCN3CCOCC3)cc2c1` [N-(4-amino-[1,1′-biphenyl]-3-yl)-2-(2-morpholinoethyl)-2H-indazole-5-carboxamide] gave an IC50 (HDAC1; Table 2) of 11 nM, an IC50 (HDAC3; Table 2) of 477 nM and an IC50 (HDAC2; Table 2) of 23 nM.

Work on `Nc1ccc(-c2ccccc2)cc1NC(=O)c1ccc2c(c1)cc(C1CC1)n2CCN1CCOCC1` [N-(4-amino-[1,1′-biphenyl]-3-yl)-2-cyclopropyl-1-(2-morpholinoethyl)-1H-indole-5-carboxamide] yielded an IC50 (HDAC1; Table 2) of 15 nM, an IC50 (HDAC3; Table 2) of 689 nM and an IC50 (HDAC2; Table 2) of 70 nM.

With `COCCn1cc(C2CC2)c2cc(C(=O)Nc3cc(-c4ccccc4)ccc3N)ccc21` [N-(4-amino-[1,1′-biphenyl]-3-yl)-3-cyclopropyl-1-(2-methoxyethyl)-1H-indole-5-carboxamide] the IC50 (HDAC1; Table 2) was greater than 2000 nM, the IC50 (HDAC3; Table 2) was greater than 2000 nM and the IC50 (HDAC2; Table 2) was greater than 2000 nM.

With `Nc1ccc(-c2ccccc2)cc1NC(=O)c1ccc2c(c1)c(C1CC1)cn2CCN1CCOCC1` [N-(4-amino-[1,1′-biphenyl]-3-yl)-3-cyclopropyl-1-(2-morpholinoethyl)-1H-indole-5-carboxamide] the IC50 (HDAC1; Table 2) was greater than 2000 nM, the IC50 (HDAC3; Table 2) was 1900 nM and the IC50 (HDAC2; Table 2) was 681 nM.

With `COCCOc1cc2ncc(C(=O)Nc3cc(-c4ccccc4)ccc3N)cc2cc1C1CC1` [N-(4-amino-[1,1′-biphenyl]-3-yl)-6-cyclopropyl-7-(2-methoxyethoxy)quinoline-3-carboxamide] the IC50 (HDAC1; Table 2) was greater than 2000 nM, the IC50 (HDAC3; Table 2) was greater than 2000 nM and the IC50 (HDAC2; Table 2) was 1560 nM.

`COCCN(C)c1cc2ncc(C(=O)Nc3cc(-c4ccccc4)ccc3N)cc2cc1C1CC1` [N-(4-amino-[1,1′-biphenyl]-3-yl)-6-cyclopropyl-7-((2-methoxyethyl)(methyl)amino)quinoline-3-carboxamide] showed an IC50 (HDAC1; Table 2) greater than 2000 nM, an IC50 (HDAC3; Table 2) greater than 2000 nM and an IC50 (HDAC2; Table 2) of 1220 nM.

For `Nc1ccc(-c2ccccc2)cc1NC(=O)c1cnc2c(C3CC3)c(NCc3ccccc3)ccc2c1` [N-(4-amino-[1,1′-biphenyl]-3-yl)-7-(benzylamino)-8-cyclopropylquinoline-3-carboxamide], the IC50 (HDAC1; Table 2) was 652 nM, the “IC50 HDAC3” value (HDAC3; Table 2) was “HDAC3 = No inhibition” and the IC50 (HDAC2; Table 2) was greater than 2000 nM.

Work on `Nc1ccc(-c2ccccc2)cc1NC(=O)c1cnc2c(N3CCNCC3)c(C3CC3)ccc2c1` [N-(4-amino-[1,1′-biphenyl]-3-yl)-7-cyclopropyl-8-(piperazin-1-yl)quinoline-3-carboxamide] yielded an IC50 (HDAC1; Table 2) of 103 nM, an IC50 (HDAC3; Table 2) of 257 nM and an IC50 (HDAC2; Table 2) of 56 nM.

Molecule `COCCNc1ccc2cc(C(=O)Nc3cc(-c4ccccc4)ccc3N)cnc2c1C1CC1` [N-(4-amino-[1,1′-biphenyl]-3-yl)-8-cyclopropyl-7-((2-methoxyethyl)amino)quinoline-3-carboxamide] has an IC50 (HDAC3; Table 2) greater than 2000 nM and an IC50 (HDAC2; Table 2) of 301 nM.

`Nc1ccc(-c2ccccc2)cc1NC(=O)c1cnc2c(C3CC3)c(N3CCNCC3)ccc2c1` [N-(4-amino-[1,1′-biphenyl]-3-yl)-8-cyclopropyl-7-(piperazin-1-yl)quinoline-3-carboxamide] gave an IC50 (HDAC1; Table 2) of 7.8 nM, an IC50 (HDAC3; Table 2) of 164 nM and an IC50 (HDAC2; Table 2) of 15 nM.

With `Nc1ccc(-c2ccccc2)cc1NC(=O)c1cnc2c(C3CC3)c(N3CCOCC3)ccc2c1` [N-(4-amino-[1,1′-biphenyl]-3-yl)-8-cyclopropyl-7-morpholinoquinoline-3-carboxamide] the IC50 (HDAC1; Table 2) was 295 nM, the IC50 (HDAC3; Table 2) was greater than 2000 nM and the IC50 (HDAC2; Table 2) was 799 nM.

`Nc1cnc(-c2ccccc2)cc1NC(=O)c1cnc2cc(N3CCNCC3)ccc2c1` [N-(5-amino-2-phenylpyridin-4-yl)-7-(piperazin-1-yl)quinoline-3-carboxamide] was tested, and the IC50 (HDAC1; Table 2) was 1230 nM and the IC50 (HDAC2; Table 2) was 1190 nM and 1880 nM.
